Consider four substances from patent US20090074666A1 (priority 2005, published 2009).

Like-named read-outs stand apart in the source and are kept apart here.

One experiment deals with A/PR/8/34 H1N1. Format: binding, human influenza virus A. On the set-up: key: “+” = binding; “−” = no binding; “(+)” = trace binding.
The subject of a further experiment is A/Shangdong/9/93 H3N2. The class given is binding, human influenza virus A. Details: key: “+” = binding; “−” = no binding; “(+)” = trace binding.
Another experiment relates to A/Kiev/301/94 H3N2. The class given is binding, human influenza virus A. Details: key: “+” = binding; “−” = no binding; “(+)” = trace binding.
For the next experiment, the system named is A/X31, A/Aichi/3/75 H3N2. The class given is binding, human influenza virus A. Details: key: “+” = binding; “−” = no binding; “(+)” = trace binding.
A further experiment concerns A/New Caledonia/20/99. The class given is binding, human influenza virus A. Details: key: “+” = binding; “−” = no binding; “(+)” = trace binding.
In the next experiment the test system is A/2/Japan/305/57 H2N2. The class given is binding, human influenza virus A. Details: key: “+” = binding; “−” = no binding; “(+)” = trace binding.
A further experiment relates to A/Taiwan/1/86 H1N1. The class given is binding, human influenza virus A. On the set-up: key: “+” = binding; “−” = no binding; “(+)” = trace binding.
A further experiment deals with A/Beijing/262/95 H1N1. The class given is binding, human influenza virus A. Details: key: “+” = binding; “−” = no binding; “(+)” = trace binding.
The test system of experiment [1] is human influenza virus A strains. Format: binding.
For experiment [2], the system named is serum antibodies of test subjects (anti-human IgG detection). Particulars: N-terminal biotin conjugate on streptavidin plate. As to the method: Biotinylated peptides were bound to streptavidin-coated plates (Pierce).
The peptides sequences were as follows: • Biotin-aminohexanoyl-PWVRGV (custom product, CSS, Edinburgh, Scotland) • Biotin-aminohexanoyl-SYACKR (custom product, CSS, Edinburgh, Scotland) • Biotin-aminohexanoyl-SKAYSNC (custom product, CSS, Edinburgh, Scotland)
Prior to peptide immobilization, plates were blocked with 150 μl of 0.5% BSA in 10 mM sodium phosphate/0.15 M NaCl/0.05% Tween-20, pH 7.2, for 1.5 h at RT. The plate was then washed three times with 10 mM sodium phosphate/0.15 M NaCl/0.05% Tween-20, pH 7.2.
Peptides were dissolved in 10 mM sodium phosphate/0.15 M NaCl, pH 7.2, to a concentration of 0.5 nmol/ml. One hundred microliters of the peptide solutions (50 pmol of the peptide) were added to the wells and allowed to react overnight at +4° C. The plates were then washed four times with 10 mM sodium phosphate/0.15 M NaCl/0.05% Tween-20/0.2% BSA, pH 7.2 (washing buffer).
Serum was obtained from six healthy individuals (29-44 years of age), and dilutions 1:10, 1:100 and 1:1000 were prepared from all but one serum sample in the washing buffer. The serum obtained from person nr. 5 was instead diluted 1:25, 1:250 and 1:2500 in the washing buffer. One hundred microliters of each serum sample was added to the wells and incubated for 60 mins at RT. […] All incubations were performed in duplicates.
After serum incubation the plate was washed with the washing buffer 8 times with at least 5 min incubation period between change of the washing liquid.
The bound serum antibodies were quantitated by adding anti-human IgG (rabbit)—HRP conjugate (Sigma) in 1:30000 dilution to each well. After one hour incubation at RT, the plate was washed five times with the washing buffer. One hundred microliters of TMB+ color reagent (Dako Cytomation) was then added. The absorbance was read at 650 nm after 15 mins. Immediately after this measurement 100 μl of 1 M sulphuric acid was added and the absorbance read at 450 nm.

Experiment [3] has the same test system. As to the kind of experiment: ELISA of serum antibodies on maleimide-activated plates. The class given is binding. Particulars: Cys-conjugate on maleimide plate. As to the method: Peptides containing cysteine were bound through the cysteine sulfhydryl group to maleimide activated plates (Reacti-Bind™ Maleimide activated plates, Pierce).
One hundred microliters of the peptide solution (0.5 nmol of peptide) was added to each well and allowed to react overnight at +4° C.
The unreacted maleimide groups were blocked with 2-mercaptoethanol: 150 μl of 1 mM 2-mercaptoethanol in 10 mM sodium phosphate/0.15 M NaCl/2 mM EDTA, pH 7.2 was added to each well and allowed to react for 1 hour at RT.
The serum obtained from person nr. […] Control wells contained no peptide but both 2-mercaptoethanol and BSA blockings were employed. All incubations were performed in duplicates.

Regarding Globoside, the “Binding of influenza virus strain to glycolipids” value in the experiment with A/PR/8/34 H1N1 is “−”; with A/Shangdong/9/93 H3N2, “−”; in the experiment on A/Kiev/301/94 H3N2, “−”; with A/X31, A/Aichi/3/75 H3N2, “−”; with A/New Caledonia/20/99, “−”; in the experiment on A/2/Japan/305/57 H2N2 it was “−”. The “Binding of influenza virus strain to glycolipids” value in the experiment with A/Taiwan/1/86 H1N1 and with A/Beijing/262/95 H1N1 was “−” each time.
As to “Neu5Acα2-3Galβ1-4GlcNAcβ1-3(Neu5Acα2-3Galβ1-4GlcNAcβ1-6)Galβ1-4Glc [Oligosaccharide 9]”, the “activity on solid phase, in words” value in experiment [1] was “active especially when presented in polyvalent form on a solid phase”.
For Biotin-aminohexanoyl-SYACKR [Peptide 2], the “Approximate immune reactions of sera against synthetic peptides” value (“Approximate immune reactions of sera” for short) is “weakest reaction” in experiment [2] (Serum 1, listed as Biotin-aminohexanoic-SYACKR); “strongest immune response” in experiment [2] (Serum 2, listed as Biotin-aminohexanoic-SYACKR); “strongest immune response” in experiment [2] (Serum 5, listed as Biotin-aminohexanoic-SYACKR); “weaker” in [3] (Serum 5); “strongest response” in experiment [3] (Serum 6).
Take “Biotin-aminohexanoyl-SKAYSNC [Peptide 1]”: the “Approximate immune reactions of sera” value in experiment [2] (Serum 1, listed as Biotin-aminohexanoic-SKAYSNC) is on record as “weakly or non-reactive”; in [2] (Serum 3, listed as Biotin-aminohexanoic-SKAYSNC), “strongest immune response”; in experiment [2] (Serum 4, listed as Biotin-aminohexanoic-SKAYSNC), “strongest immune response”; in experiment [2] (Serum 5, listed as Biotin-aminohexanoic-SKAYSNC), “weakly or non-reactive”; in [2] (Serum 6, listed as Biotin-aminohexanoic-SKAYSNC), “weakly or non-reactive”; in experiment [3] (Serum 1), “weakly or non-reactive”. In addition, the “Approximate immune reactions of sera” value is on record as “reacted” in experiment [3] (Serum 2); “reacted” in experiment [3] (Serum 3); “reacted” in [3] (Serum 4); “weakly or non-reactive” in [3] (Serum 5); “strongest” in [3] (Serum 6).
